From patent US20120157379A1, “Gastric Inhibitory Peptide Variants and Their Uses” (priority 2009, published 2012)

T1: GIP receptor (GIPR) (Homo sapiens, UniProt P48546)
T1 construct: host or cells: HEK293T
T1 sequence (P48546 22-466): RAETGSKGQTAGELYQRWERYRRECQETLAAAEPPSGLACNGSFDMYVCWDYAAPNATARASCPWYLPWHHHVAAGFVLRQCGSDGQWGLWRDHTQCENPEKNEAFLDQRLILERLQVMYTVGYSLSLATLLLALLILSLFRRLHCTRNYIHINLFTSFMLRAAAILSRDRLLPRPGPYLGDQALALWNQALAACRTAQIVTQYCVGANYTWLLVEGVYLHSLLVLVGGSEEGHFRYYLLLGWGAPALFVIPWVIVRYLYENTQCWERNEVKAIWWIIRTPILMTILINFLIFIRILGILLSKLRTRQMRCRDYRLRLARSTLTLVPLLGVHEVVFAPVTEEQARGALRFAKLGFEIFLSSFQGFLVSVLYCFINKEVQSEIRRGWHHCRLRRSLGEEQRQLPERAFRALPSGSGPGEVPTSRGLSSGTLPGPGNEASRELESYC

T2: recombinant wild type GIP receptor (GIPR) expressed in HEK293T cells (Homo sapiens (Human), UniProt P48546)
T2 sequence: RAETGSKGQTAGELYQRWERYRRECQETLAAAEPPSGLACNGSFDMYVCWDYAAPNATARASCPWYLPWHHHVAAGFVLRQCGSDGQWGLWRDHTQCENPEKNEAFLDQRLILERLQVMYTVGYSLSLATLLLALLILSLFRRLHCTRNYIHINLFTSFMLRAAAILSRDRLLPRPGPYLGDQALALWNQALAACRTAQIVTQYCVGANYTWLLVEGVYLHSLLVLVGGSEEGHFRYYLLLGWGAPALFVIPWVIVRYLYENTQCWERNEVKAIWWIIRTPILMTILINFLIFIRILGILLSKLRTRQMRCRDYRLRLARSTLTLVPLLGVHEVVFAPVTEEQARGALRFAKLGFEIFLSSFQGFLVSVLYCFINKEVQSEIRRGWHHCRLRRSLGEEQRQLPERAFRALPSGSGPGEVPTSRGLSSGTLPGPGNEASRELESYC


Assays:
GIP receptor (GIPR) = target: T1, GIP receptor (GIPR); experiment: Receptor-activation assay: cAMP production in HEK293T cells expressing recombinant GIP receptor; format: cell-based; settings: for EC50: EC50 values (-Log EC50, mean ± SEM)
Description: (§1) Vector, transfection, and receptor-activation assay. […] The treated peptides were frozen at −80 C before testing with transfected cells. Receptor-activation activities were assayed based on cAMP production in transfected cells, and were performed as described44. The receptor-activation results were analyzed using the GraphPad Prism 5 package.

[1] = test system: fasting Sprague-Dawley rats; experiment: In vivo glucose suppression assay; set-up: species or system rat; settings: for blood glucose after exogenous glucose: 100 nmoles/kg peptide with glucose 3.8 g/kg intraperitoneal, 1 hr after injection
Description: The in vivo glucose suppression assay. Eight-week-old Sprague-Dawley rats were fasted overnight for 20 hours. […] Bloods were obtained via the tail vein at select time points after intraperitoneal injection of glucose with a peptide. Glucose levels in the blood were measured by an OneTouch Ultra Blood Glucose Monitoring System and OneTouch Ultra Test Strips (Johnson and Johnson).

[2] = Resistance to serum degradation: peptides incubated with human serum at 37 C, then tested for receptor activation; settings: pooled normal human serum or pooled complement-preserved human serum, in vitro
Description: as §1

[3] = target: T2, recombinant wild type GIP receptor …; experiment: cell-based or functional assay
[4] = target: T2, recombinant wild type GIP receptor …; experiment: cell-based or functional assay; remark: listed apart in the source

Molecule	blood glucose after exogenous glucose [1]	resistance to degradation by human serum, relative to GIP [2]	EC50 of cAMP production in GIPR-expressing HEK293T cells [3]	-Log EC50 of cAMP production; peptide incubated 0 hr with pooled complement preserved human serum [4]	-Log EC50 of cAMP production; peptide incubated 0 hr with pooled human serum [4]	-Log EC50 of cAMP production; peptide incubated 3 hr with pooled complement preserved human serum [4]	-Log EC50 of cAMP production; peptide incubated 3 hr with pooled human serum [4]	-Log EC50 of cAMP production; peptide incubated 6 hr with pooled complement preserved human serum [4]	-Log EC50 of cAMP production; peptide incubated 6 hr with pooled human serum [4]	-Log EC50 of cAMP production; peptide incubated 12 hr with pooled complement preserved human serum [4]	-Log EC50 of cAMP production; peptide incubated 12 hr with pooled human serum [4]	further results
CC[C@H](C)[C@H](NC(=O)[C@H](CO)NC(=O)[C@H](Cc1ccc(O)cc1)NC(=O)[C@H](CC(=O)O)NC(=O)[C@H](CO)NC(=O)[C@@H](NC(=O)[C@H](Cc1ccccc1)NC(=O)[C@@H](NC(=O)CNC(=O)[C@H](CCC(=O)O)NC(=O)[C@H](C)NC(=O)[C@@H](N)Cc1ccc(O)cc1)[C@@H](C)O)[C@@H](C)CC)C(=O)N[C@@H](C)C(=O)N[C@@H](CCSC)C(=O)N[C@@H](CC(=O)O)C(=O)N[C@@H](CCCCN)C(=O)N[C@H](C(=O)N[C@@H](Cc1c[nH]cn1)C(=O)N[C@@H](CCC(N)=O)C(=O)N[C@@H](CCC(N)=O)C(=O)N[C@@H](CC(=O)O)C(=O)N[C@@H](Cc1ccccc1)C(=O)N[C@H](C(=O)N[C@@H](CC(N)=O)C(=O)N[C@@H](Cc1c[nH]c2ccccc12)C(=O)N[C@@H](CC(C)C)C(=O)N[C@@H](CC(C)C)C(=O)N[C@@H](C)C(=O)N[C@@H](CCC(N)=O)C(=O)N[C@@H](CCCCN)C(=O)NCC(=O)N[C@@H](CCCCN)C(=O)N[C@@H](CCCCN)C(=O)N[C@@H](CC(N)=O)C(=O)N[C@@H](CC(=O)O)C(=O)N[C@@H](Cc1c[nH]c2ccccc12)C(=O)N[C@@H](CCCCN)C(=O)N[C@@H](Cc1c[nH]cn1)C(=O)N[C@@H](CC(N)=O)C(=O)N[C@H](C(=O)N[C@H](C(=O)N[C@@H](CCC(N)=O)C(=O)N[C@@H](CCCNC(=N)N)C(=O)N[C@@H](CCC(=O)O)C(=O)N[C@@H](C)C(=O)N[C@@H](CCCNC(=N)N)C(=O)N[C@@H](C)C(=O)N[C@@H](CC(C)C)C(=O)N[C@@H](CCC(=O)O)C(=O)N[C@@H](CC(C)C)C(=O)N[C@@H](C)C(=O)N[C@@H](CO)C(=O)N[C@@H](CCC(N)=O)C(=O)N[C@@H](C)C(=O)N[C@@H](CC(N)=O)C(=O)O)[C@@H](C)O)[C@@H](C)CC)C(C)C)[C@@H](C)CC [GIP55S]	reduced glucose contents in the blood to basal levels	significantly more resistant to degradation										ranking of potency (GIP receptor (GIPR); 0 hr of human serum treatment (normal or complement preserved)): GIP>GIP55G>GIP55S; ranking of potency (GIP receptor (GIPR); 6 hr after treatment with human serum (normal or complement preserved)): GIP=GIP55G=GIP55S; ranking of potency (GIP receptor (GIPR); 12 hr after treatment with human serum (normal or complement preserved)): GIP55G>GIP55S≧GIP; lower potency relative to conventional GIP (GIP receptor (GIPR); EC50 compared with GIP, no serum treatment): ~3 fold; EC50 (GIP receptor (GIPR); with pooled complement preserved human serum, 0 hours of incubation): 3.72 nM; EC50 (GIP receptor (GIPR); with pooled complement preserved human serum, 3 hours of incubation): 3.24 nM; EC50 (GIP receptor (GIPR); with pooled complement preserved human serum, 6 hours of incubation): 16.2 nM; EC50 (GIP receptor (GIPR); with pooled complement preserved human serum, 12 hours of incubation): 75.9 nM; EC50 (GIP receptor (GIPR); with pooled human serum, 0 hours of incubation): 2.75 nM; EC50 (GIP receptor (GIPR); with pooled human serum, 3 hours of incubation): 4.57 nM; EC50 (GIP receptor (GIPR); with pooled human serum, 6 hours of incubation): 18.2 nM; EC50 (GIP receptor (GIPR); with pooled human serum, 12 hours of incubation): 41.7 nM; cAMP production in GIP receptor-expressing HEK293T cells (GIP receptor (GIPR); cells treated with synthetic peptides for 12 hr, total cAMP in cell lysates): dose-dependent increases of cAMP production; suppression of hyperglycemia ([1]; compared with conventional mature GIP): suppress hyperglycemias to similar extents
CC[C@H](C)[C@H](NC(=O)[C@H](CO)NC(=O)[C@H](Cc1ccc(O)cc1)NC(=O)[C@H](CC(=O)O)NC(=O)[C@H](CO)NC(=O)[C@@H](NC(=O)[C@H](Cc1ccccc1)NC(=O)[C@@H](NC(=O)CNC(=O)[C@H](CCC(=O)O)NC(=O)[C@H](C)NC(=O)[C@@H](N)Cc1ccc(O)cc1)[C@@H](C)O)[C@@H](C)CC)C(=O)N[C@@H](C)C(=O)N[C@@H](CCSC)C(=O)N[C@@H](CC(=O)O)C(=O)N[C@@H](CCCCN)C(=O)N[C@H](C(=O)N[C@@H](Cc1c[nH]cn1)C(=O)N[C@@H](CCC(N)=O)C(=O)N[C@@H](CCC(N)=O)C(=O)N[C@@H](CC(=O)O)C(=O)N[C@@H](Cc1ccccc1)C(=O)N[C@H](C(=O)N[C@@H](CC(N)=O)C(=O)N[C@@H](Cc1c[nH]c2ccccc12)C(=O)N[C@@H](CC(C)C)C(=O)N[C@@H](CC(C)C)C(=O)N[C@@H](C)C(=O)N[C@@H](CCC(N)=O)C(=O)N[C@@H](CCCCN)C(=O)NCC(=O)N[C@@H](CCCCN)C(=O)N[C@@H](CCCCN)C(=O)N[C@@H](CC(N)=O)C(=O)N[C@@H](CC(=O)O)C(=O)N[C@@H](Cc1c[nH]c2ccccc12)C(=O)N[C@@H](CCCCN)C(=O)N[C@@H](Cc1c[nH]cn1)C(=O)N[C@@H](CC(N)=O)C(=O)N[C@H](C(=O)N[C@H](C(=O)N[C@@H](CCC(N)=O)C(=O)O)[C@@H](C)O)[C@@H](C)CC)C(C)C)[C@@H](C)CC [GIP, Gastric inhibitory polypeptide, reference compound]	reduced glucose contents in the blood to basal levels											
CC[C@H](C)[C@H](NC(=O)[C@H](CO)NC(=O)[C@H](Cc1ccc(O)cc1)NC(=O)[C@H](CC(=O)O)NC(=O)[C@H](CO)NC(=O)[C@@H](NC(=O)[C@H](Cc1ccccc1)NC(=O)[C@@H](NC(=O)CNC(=O)[C@H](CCC(=O)O)NC(=O)[C@H](C)NC(=O)[C@@H](N)Cc1ccc(O)cc1)[C@@H](C)O)[C@@H](C)CC)C(=O)N[C@@H](C)C(=O)N[C@@H](CCSC)C(=O)N[C@@H](CC(=O)O)C(=O)N[C@@H](CCCCN)C(=O)N[C@H](C(=O)N[C@@H](Cc1c[nH]cn1)C(=O)N[C@@H](CCC(N)=O)C(=O)N[C@@H](CCC(N)=O)C(=O)N[C@@H](CC(=O)O)C(=O)N[C@@H](Cc1ccccc1)C(=O)N[C@H](C(=O)N[C@@H](CC(N)=O)C(=O)N[C@@H](Cc1c[nH]c2ccccc12)C(=O)N[C@@H](CC(C)C)C(=O)N[C@@H](CC(C)C)C(=O)N[C@@H](C)C(=O)N[C@@H](CCC(N)=O)C(=O)N[C@@H](CCCCN)C(=O)NCC(=O)N[C@@H](CCCCN)C(=O)N[C@@H](CCCCN)C(=O)N[C@@H](CC(N)=O)C(=O)N[C@@H](CC(=O)O)C(=O)N[C@@H](Cc1c[nH]c2ccccc12)C(=O)N[C@@H](CCCCN)C(=O)N[C@@H](Cc1c[nH]cn1)C(=O)N[C@@H](CC(N)=O)C(=O)N[C@H](C(=O)N[C@H](C(=O)N[C@@H](CCC(N)=O)C(=O)N[C@@H](CCCNC(=N)N)C(=O)N[C@@H](CCC(=O)O)C(=O)N[C@@H](C)C(=O)N[C@@H](CCCNC(=N)N)C(=O)N[C@@H](C)C(=O)N[C@@H](CC(C)C)C(=O)N[C@@H](CCC(=O)O)C(=O)N[C@@H](CC(C)C)C(=O)N[C@@H](C)C(=O)NCC(=O)N[C@@H](CCC(N)=O)C(=O)N[C@@H](C)C(=O)N[C@@H](CC(N)=O)C(=O)O)[C@@H](C)O)[C@@H](C)CC)C(C)C)[C@@H](C)CC [GIP55G]		significantly more resistant to degradation										
GIP55G, extended 55-amino-acid GIP isoform encoded by the derived G-44394131 allele (G103) (ligand) peptide: YAEGTFISDYSIAMDKIHQQDFVNWLLAQKGKKNDWKHNITQREARALELAGQAN			3.2 nM	8.51 -Log EC50	8.47 -Log EC50	8.22 -Log EC50	8.32 -Log EC50	7.88 -Log EC50	8.02 -Log EC50	7.86 -Log EC50	7.93 -Log EC50	
GIP55S, extended 55-amino-acid GIP isoform encoded by the ancestral A-44394131 allele (S103) (ligand) peptide: YAEGTFISDYSIAMDKIHQQDFVNWLLAQKGKKNDWKHNITQREARALELASQAN			2.6 nM	8.43 -Log EC50	8.56 -Log EC50	8.49 -Log EC50	8.34 -Log EC50	7.79 -Log EC50	7.74 -Log EC50	7.12 -Log EC50	7.38 -Log EC50	
